Tests used:
[1] = AUC (0 to 24 hrs) in C57BL6 mouse at 10 mg/kg, po measured upto 24 hrs by LC-MS/MS analysis; assay type: ADME, organism-based; set-up: dose 10 mg/kg, time < 24 hrs, route po; details: in vivo
[2] = Oral bioavailability in C57BL6 mouse at 10 mg/kg measured upto 24 hrs by LC-MS/MS analysis; assay type: ADME, organism-based; details: in vivo
[3] = Metabolic stability of the compound in mouse liver microsomes assessed as CYP450-mediated metabolism by measuring parent compound remaining at 0.5 uM measured after 10 mins in presence of NADPH by LC-MS/MS analysis; assay type: ADME, Microsome; details: read-out: Stability
[4] = Metabolic stability of the compound in rat liver microsomes assessed as CYP450-mediated metabolism by measuring parent compound remaining at 0.5 uM measured after 10 mins in presence of NADPH by LC-MS/MS analysis; assay type: ADME, Microsome; details: read-out: Stability
[5] = Cmax in C57BL6 mouse at 10 mg/kg, po measured upto 24 hrs by LC-MS/MS analysis; assay type: ADME, organism-based; set-up: time < 24 hrs, dose 10 mg/kg, route po; details: in vivo
[6] = Clearance in C57BL6 mouse at 2 mg/kg, iv measured upto 24 hrs by LC-MS/MS analysis; assay type: ADME, organism-based; details: in vivo
[7] = Volume of distribution at steady state in C57BL6 mouse at 2 mg/kg, iv measured upto 24 hrs by LC-MS/MS analysis; assay type: ADME, organism-based; details: in vivo, read-out: Vdss
[8] = Permeability of the compound at pH 7.4 measured for 4 hrs by UV plate reader based PAMPA assay; assay type: ADME; details: read-out: permeability
[9] = Permeability of the compound at pH 5.5 measured for 4 hrs by UV plate reader based PAMPA assay; assay type: ADME; details: read-out: permeability

Row | Papp at 4 h [8] [×10⁻⁶ cm/s] | Papp at 4 h [9] [×10⁻⁶ cm/s] | SMILES | further results
1 | 30.4 | 24.7 | Cc1nc([C@@H]2O[C@H](CO)[C@H](O)[C@H](n3cc(-c4cc(F)c(F)c(F)c4)nn3)[C@H]2O)n(-c2cc(Cl)ccc2Cl)n1 | –
2 | 34.5 | 36.3 | Cc1nc([C@@H]2O[C@H](CO)[C@H](O)[C@H](n3cc(-c4cc(F)c(F)c(F)c4)nn3)[C@H]2O)n(-c2cccc(Cl)c2)n1 | –
3 | 18.1 | 15 | Cc1nc([C@@H]2O[C@H](CO)[C@H](O)[C@H](n3cc(-c4cc(F)c(F)c(F)c4)nn3)[C@H]2O)n(-c2cc(Cl)ccc2C)n1 | –
4 | 12.5 | 12.7 | Cc1nc([C@@H]2O[C@H](CO)[C@H](O)[C@H](n3cc(-c4cc(F)c(F)c(F)c4)nn3)[C@H]2O)n(-c2cc(Cl)ccc2F)n1 | –
5 | 14 | 15.7 | COc1ccc(Cl)cc1-n1nc(C)nc1[C@@H]1O[C@H](CO)[C@H](O)[C@H](n2cc(-c3cc(F)c(F)c(F)c3)nn2)[C@H]1O | –
6 | 14.8 | 14.5 | Cc1nc([C@@H]2O[C@H](CO)[C@H](O)[C@H](n3cc(-c4cc(F)c(F)c(F)c4)nn3)[C@H]2O)n(-c2cc(Cl)ccc2Br)n1 | –
7 | 36.9 | 51.1 | Cc1nc([C@@H]2O[C@H](CO)[C@H](O)[C@H](n3cc(-c4cc(F)c(F)c(F)c4)nn3)[C@H]2O)n(-c2cc(Cl)ccc2C(F)(F)F)n1 | –

More lines, now with the values behind:

Row | SMILES | Papp at 4 h [8] [×10⁻⁶ cm/s] | Papp at 4 h [9] [×10⁻⁶ cm/s] | further results
8 | Cc1nc([C@@H]2O[C@H](CO)[C@H](O)[C@H](n3cc(-c4cc(F)c(Cl)c(F)c4)nn3)[C@H]2O)n(-c2cc(Cl)ccc2C(F)(F)F)n1 | – | – | AUC(0-t) at 24 h [1]: 40 µM·h; bioavailability [2]: 100%; remaining at 10 min, 0.5 µM [3]: 85%; remaining at 10 min, 0.5 µM [4]: 91%; Cmax [5]: 5 µM; clearance [6]: 7 mL/min/kg; Vd [7]: 1.7 L/kg
9 | Cc1nc([C@@H]2O[C@H](CO)[C@H](O)[C@H](n3cc(-c4ccc(Cl)c(F)c4F)nn3)[C@H]2O)n(-c2cc(Cl)ccc2C(F)(F)F)n1 | – | – | AUC(0-t) at 24 h [1]: 37 µM·h; Cmax [5]: 3.6 µM
10 | Cc1nc([C@@H]2O[C@H](CO)[C@H](O)[C@H](n3cc(-c4ccc(Br)c(F)c4F)nn3)[C@H]2O)n(-c2cc(Cl)ccc2C(F)(F)F)n1 | – | – | AUC(0-t) at 24 h [1]: 40 µM·h; bioavailability [2]: 40%; Cmax [5]: 5 µM; clearance [6]: 2.7 mL/min/kg; Vd [7]: 2.4 L/kg
11 | OC[C@H]1O[C@@H](n2nncc2-c2ccc(Cl)c(Cl)c2)[C@H](O)[C@@H](n2cc(-c3cc(F)c(F)c(F)c3)nn2)[C@H]1O | 7 | – | –
12 | Cc1nc([C@@H]2O[C@H](CO)[C@H](O)[C@H](n3cc(-c4cc(F)c(F)c(F)c4)nn3)[C@H]2O)n(-c2cc(Cl)cc(Cl)c2)n1 | 12.5 | 10.8 | –
13 | OC[C@H]1O[C@@H](c2nncn2-c2cccc(Cl)c2)[C@H](O)[C@@H](n2cc(-c3cc(F)c(F)c(F)c3)nn2)[C@H]1O | 0.6 | – | –
14 | OC[C@H]1O[C@@H](c2ncnn2-c2cccc(Cl)c2)[C@H](O)[C@@H](n2cc(-c3cc(F)c(F)c(F)c3)nn2)[C@H]1O | 20.3 | – | –
15 | Cc1nc([C@@H]2O[C@H](CO)[C@H](O)[C@H](n3cc(-c4cc(F)c(F)c(F)c4)nn3)[C@H]2O)n(-c2cccc(Cl)c2Cl)n1 | 45.2 | 42.3 | –
16 | Cc1nc([C@@H]2O[C@H](CO)[C@H](O)[C@H](n3cc(-c4cc(F)c(F)c(F)c4)nn3)[C@H]2O)n(-c2ccc(Cl)c(Cl)c2)n1 | 45.6 | 44.4 | –
17 | OC[C@H]1O[C@@H](n2nncc2-c2cccc(Cl)c2)[C@H](O)[C@@H](n2cc(-c3cc(F)c(F)c(F)c3)nn2)[C@H]1O | 3.3 | 3.1 | –

Source: ChEMBL document CHEMBL5120969, “Identification of Monosaccharide Derivatives as Potent, Selective, and Orally Bioavailable Inhibitors of Human and Mouse Galectin-3” (J Med Chem, 2022)
